This note sets out measurements from the NIST ThermoML archive (doi:10.1021/je9008206).

Numbers after ± are expanded uncertainties.

The nature of series [1]: Molar enthalpy of transition or fusion. Particulars: Crystal; DSC.
The conditions of series [2]: Crystal; DTA.

`O=C1OC(=O)c2c(Cl)cccc21` [3-chlorophthalic anhydride]: the “Molar enthalpy of transition or fusion” value in series [1] stood at 3.19 ± 0.206 kcal/mol. In addition, in series [2], the Normal melting temperature turned out to be 124.80 ± 0.53 °C.
Turning to `O=C1OC(=O)c2cc(Cl)ccc21` [4-chlorophthalic anhydride], in series [1], the “Molar enthalpy of transition or fusion” value was found to be 7.9 ± 0.239 kcal/mol. For the same molecule, the Normal melting temperature in series [2] is 94.20 ± 0.53 °C.
